Reference: patent US8283521B2, “Transcription factor gene induced by water deficit conditions and abscisic acid from Helianthus annuus, promoter and transgenic plants” (Bioceres S.A., priority 2003, dated 2012)

How the values were obtained:
[1] = tested on: 5′-CAAT(A/T)ATTG-3′ DNA sequence; test: Electrophoretic mobility shift assay with nuclear extracts of treated seedlings; assay type: binding, Helianthus annuus; conditions: nuclear extracts from ABA-treated 4-day-old seedlings
Procedure: The presence of functional DNA binding proteins in sunflower nuclei was analyzed by electrophoretic mobility shift assays using a synthetic double-stranded oligonucleotide comprising the sequence 5′-CAAT(A/T)ATTG-3′ (SEQ ID NO:23) bound in vitro by Hahb-4 expressed in bacteria. […] On the contrary, only the slower-migrating complex increased when plants were subjected to water stress. Formation of both complexes was almost completely abolished by an excess of the same unlabelled DNA, but not by an equivalent amount of a similar DNA containing the sequence 5′-CACT(A/T)AGTG-3′ (SEQ ID NO:31) (changed positions underlined) not bound by Hahb-4 (FIG. 6).
Sunflower nuclei and nuclear extracts were prepared from control, water-stressed, or ABA-treated seedlings (4-days-old) according to the technique described in Maliga et al. (Methods in Plant Molecular Biology. A Laboratory Course Manual, pages 233-260. Cold Spring Harbor Laboratory Press, Cold Spring Harbor, N.Y., USA, 1995, herein incorporated by reference). Protein patterns were analyzed by SDS-polyacryla-mide gel electrophoresis (PAGE) and total protein concentration was measured as described Sedmak J. et. al., Analytical Biochemistry 79: 544-552, 1977. […]

[2] = tested on: Hahb-4; test: Hahb-4 expression in treated sunflower seedlings by RNAse protection; assay type: in vivo, Helianthus annuus
Source text: We have analyzed the expression of Hahb-4 under different environmental conditions (i.e. water, osmotic, salt, cold, heat, and oxidative stress) by RNAse protection, which is more sensitive than the Northern technique (FIG. 2).
As many responses to water stress are mediated by ABA, we have also analyzed the effect of this hormone on the expression.
Helianthus annuus L. (sunflower cv. contiflor 15, from Zeneca, Balcarce, Argentina, or cv. Sunweed, from Rhône-Poulenc, Lyon, France) seeds were surface sterilized and grown on filter paper inside Petri dishes for a period of 4 d. Seedlings were then transferred to plastic supports containing Hoagland's medium and grown until they had six leaves (approximately 3 weeks). Water stress was imposed either by transferring 4-day-old-seedlings to Petri dishes with dry filter paper or by removing plants from the hydroponic culture.
For RNAse protection analysis, total RNA (15 μg) prepared as described (Almoguera C., et. al.; Plant molecular Biology 19: 781-792, 1992) was hybridized to a specific Hahb-4 riboprobe synthesized by in vitro transcription using T3 RNA polymerase and [^32P]CTP following the instructions of the manufacturer (Boehringer Mannheim, Mannheim, Germany). The template consisted of an insert corresponding to the coding region between +81 and +429 (FIG. 1 and SEQ ID NO 1) cloned into the SpeI/BamHI sites of pBlue-script SK^−. The BamHI site, not present in the cDNA, derives from amplification with oligonucleotide H41 as described above. Restriction digestion of this template DNA with EcoRI allows transcription of a 411-nucleotide RNA probe that contains 63 nucleotides from the vector (from the T3 promoter to the SpeI site in the polylinker, and from the BamHI to the EcoRI sites). Conditions for riboprobe preparation, hybridization, digestion with RNAse A, and subsequent electrophoretic analysis of protected RNA fragments were as previously described (Coca M: A: et. al.; Plant Molecular Biology 31: 863-876, 1996, herein incorporated as reference).

[3] = tested on: Hahb-4; test: Time dependence of the response of Hahb-4 to ABA by Northern analysis; assay type: in vivo, Helianthus annuus; conditions: 100 μM ABA
Procedure: Total RNA (20 μg) was isolated from seedlings that were either untreated, or treated with 100 μM ABA for different times as indicated in each lane. In the lower panel, the same filter was hybridized with an rRNA probe as a control for RNA loading and transfer.
The high level of induction observed under water stress conditions allowed us to analyze the time-dependent increase in transcript levels by Northern experiments. […] After this time, no further increments in Hahb-4 transcript levels were observed. Re-hydration of the seedlings lowered Hahb-4 transcript levels more slowly, with only about a 50% decrease after 2 h (FIG. 3, lanes 4 and 5). The effect of ABA treatment was also time dependent. […] The high Hahb-4 transcript levels of the invention are reverted after the re-hydration of the sunflower plants, thus indicating again that said gene participates in the response to the water stress.
Total RNA (20 μg) was denatured with formamide and formaldehyde, separated in a 1.5% (w/v) agarose/6% formaldehyde gel, and blotted onto nylon membranes (Hybond N; Amersham-Pharmacia, Buckinghamshire, UK) essentially as described by Sambrook, Fritsch & Maniatis (1989).
Hybridization was performed overnight at 65° C. in 6×SSC (1×SSC is 0.15 M NaCl, 0.015 M Na3-citrate, pH 7.0), 0.1% (w/v) polyvinylpirrolidone, 0.1% (w/v) bovine serum albumin, 0.1% (w/v) Ficoll, 0.5% (w/v) sodium dodecyl sulphate (SDS). […] The filters were autoradiographed using Bio-Max films and transcreen (Eastman Kodak, Rochester, N.Y., USA) overnight. To check the amount of total RNA loaded in each lane, filters were then re-probed with a 25S rRNA from Vicia faba under similar conditions as those described above, except that hybridization was performed at 62° C.

[4] = tested on: Arabidopsis thaliana; test: Germination in the presence of mannitol or NaCl; assay type: in vivo; conditions: 50, 200, 300 mM mannitol
Procedure: First, the germination process, under conditions imitating the lack of water, such as presence of mannitol, and other conditions generating salt stress, was analyzed. FIGS. 11, 12 and 13 show the germination times of plants transformed according to the invention as compared to control ones. […] This effect is more remarked at higher concentrations of the carbohydrate.
When the germination tests were carried out in the presence of different concentrations of NaCl the obtained results were similar as in the case of mannitol.
The seeds from Arabidopsis thaliana were sterilized by washing with ethanol 70% (v/v) (1 min), chlorine 5%-SDS 1% (15 min) and sterile distilled water (3 times). Then the seeds were suspended in 8 ml of agar 0.1% and sowed in 150 mm Petri plates containing MS medium, with the addition of Gamborg's vitamins. The plates were maintained at 4° C. during two days and then placed into a culture chamber with controlled light and temperature (16 hours light at 24° C. and 8 hours darkness at 21° C.). The required illumination conditions (150-200 μE/m 2) were artificially obtained by keeping the plants at a distance of 25 cm from six fluorescent tubes, intercalating white light and Grolux tubes (from Sylvania) adjacently located.

SMILES: CC1=CC(=O)CC(C)(C)[C@@]1(O)/C=C/C(C)=C\C(=O)O [ABA, abscisic acid]
- amount of both protein complexes binding the Hahb-4 target sequence [1]: significantly increased
- Hahb-4 transcript levels ([2]; 10 μM ABA): smaller, but significant increase in transcript levels
- Hahb-4 expression ([2]; 100 μM ABA, 24 h, irrigated 4-day-old seedlings): induction was observed
- Hahb-4 transcript levels after 24 h of treatment ([3]; 24 h): still significantly high
- time of maximum response of Hahb-4 to ABA ([3]; seedlings): 3 to 6 h
- time until response of Hahb-4 to ABA is detectable ([3]; seedlings): ≤ 1 h

SMILES: OC[C@@H](O)[C@@H](O)[C@H](O)[C@H](O)CO [Mannitol, mannitol]
- Hahb-4 expression ([2]; 0.5 M mannitol during 4 h, 4-day-old seedlings): induced Hahb-4 expression, although at lower levels
- effect of mannitol on germination [4]: delays the germination
